Laboratory results from patent US9428753B2, “Use of LXR antagonists for treatment of side effects of elevated glucocorticoid levels” (The Governing Council of the University of Toronto, priority 2013, dated 2016).
“Also recorded” adds a separate entry of the source.

Tests used:
[1] = system: Srebp-1c; test: Srebp-1c gene expression in mouse primary hepatocytes; format: cell-based; conditions: WT, LXRα−/− and LXRβ−/− hepatocytes; 250 nM T09 + 10 μM GSK2033
[2] = system: mouse primary hepatocytes; test: Glucose production (glucose output) in mouse primary hepatocytes; format: cell-based
Description: T09 treatment was used as a positive control for LXR activity. (D) Glucose output over 24 hrs from LXRα−/− and LXRβ−/− mouse primary hepatocytes following Dex 100 nM±10 μM GSK2033 treatment. (E) Glucose output over 8 hrs from WT hepatocytes following Dex 500 nM±10 μM GSK2033 treatments. Data represent the Avg±SD, N=3. *P<0.05 by One way ANOVA, Student Newman Keuls. Legend: V=vehicle, G=GSK2033 (LXR antagonist); D=dexamethasone (GR agonist); and T09=T0901317 (LXR agonist).
While not wishing to be limited by theory, subsequent to conducting these initial studies it was realized that 24 hour incubation of hepatocytes in gluconeogenic media may be too long. In the literature, for this type of assay, primary heptocytes are usually incubated up to 12 hours. As such, for subsequent studies of the present application, WT cells were treated with 500 nM Dex for 8 hours to be able to measure detectable levels of glucose in the media.

[3] = target: T1, LXRα (Homo sapiens, UniProt Q13133); test: cell-based
T1 sequence (Q13133 209-447 limits assumed): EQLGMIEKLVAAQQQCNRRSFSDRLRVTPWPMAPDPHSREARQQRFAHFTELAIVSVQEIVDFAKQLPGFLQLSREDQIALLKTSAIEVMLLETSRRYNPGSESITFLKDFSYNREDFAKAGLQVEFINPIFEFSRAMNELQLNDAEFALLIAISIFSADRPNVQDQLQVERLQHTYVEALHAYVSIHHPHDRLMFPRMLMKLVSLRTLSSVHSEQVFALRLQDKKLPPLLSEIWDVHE

[4] = target: T2, GR (Homo sapiens, UniProt P04150); test: GAL4-GR / UAS-luc transfection assay in mouse primary hepatocytes; format: cell-based; set-up: co-transfecting UAS-reporter and GAL4-LBD of the nuclear receptors LXRα, LXRβ and GR; GAL4 (fusion partner); expressed in transfected cells; host or cells: mouse primary hepatocytes; conditions: GAL4-GR activated with 100 nM Dex
T2 sequence (P04150 524-758 limits assumed): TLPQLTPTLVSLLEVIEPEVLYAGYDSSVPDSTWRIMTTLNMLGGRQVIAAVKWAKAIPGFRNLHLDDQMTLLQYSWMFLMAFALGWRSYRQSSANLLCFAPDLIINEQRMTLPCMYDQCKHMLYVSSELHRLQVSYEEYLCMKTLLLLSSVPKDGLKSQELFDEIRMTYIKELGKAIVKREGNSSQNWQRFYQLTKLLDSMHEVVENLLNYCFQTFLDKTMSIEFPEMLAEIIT
Description: (§1) RLU=relative luciferase units.

[5] = target: T1, LXRα; test: GAL4-LXRα / UAS-luc co-transfection reporter assay in HEK293 cells; format: cell-based; set-up: co-transfecting UAS-reporter and GAL4-LBD of the nuclear receptors LXRα, LXRβ and GR; GAL4 (fusion partner); expressed in transfected cells; host or cells: HEK293 cells; mouse primary hepatocytes
Description: as §1, §1
(§2) Further experiments were then carried out to determine the inhibitory potencies for the individual LXR isoforms in HEK 293 cells by co-transfecting UAS-reporter and GAL4-LBD of the nuclear receptors LXRα, LXRβ and GR and then treating with 8 different concentrations of GSK2033. To assess suppression of ligand activated receptors, the transfected cells were co-treated with increasing doses of GSK2033, in addition to T09091317 or Dex (dexamethasone) (at EC80 of LXR isoforms and GR, respectively).
A number of experiments were carried out to determine the relative inhibitory potencies of GSK2033, Amgen 54 and DMHCl for the individual LXR isoforms in HEK 293 cells by co-transfecting UAS-reporter and GAL4-LBD of the nuclear receptors LXRα, LXRβ and GR and then treating with 6 different concentrations of GSK2033, Amgen 54 and DMHCl. To assess suppression of ligand activated receptors, the transfected cells were co-treated with increasing doses of GSK2033, Amgen 54 and DMHCl, in addition to T09091317 or Dex (at EC80 of LXR isoforms and GR, respectively).

[6] = target: T3, LXRβ (Homo sapiens, UniProt P55055); test: GAL4-LXRβ / UAS-luc co-transfection reporter assay in HEK293 cells; format: cell-based; set-up: co-transfecting UAS-reporter and GAL4-LBD of the nuclear receptors LXRα, LXRβ and GR; GAL4 (fusion partner); expressed in transfected cells; host or cells: HEK293 cells; mouse primary hepatocytes
T3 sequence (P55055 222-460 limits assumed): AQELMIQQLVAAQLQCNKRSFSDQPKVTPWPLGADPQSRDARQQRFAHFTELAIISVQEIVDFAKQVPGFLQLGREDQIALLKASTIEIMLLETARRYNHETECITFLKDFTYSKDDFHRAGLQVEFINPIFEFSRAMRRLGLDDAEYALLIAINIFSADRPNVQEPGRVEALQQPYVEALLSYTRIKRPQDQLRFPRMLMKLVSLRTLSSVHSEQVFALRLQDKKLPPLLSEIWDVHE
Description: as §1, §1, §2
A number of experiments were carried out to determine the relative inhibitory potencies of GSK2033, Amgen 54 and DMHCl for the individual LXR isoforms in HEK 293 cells by co-transfecting UAS-reporter and GAL4-LBD of the nuclear receptors LXRα, LXRβ and GR and then treating with 6 different concentrations of GSK2033, Amgen 54 and DMHCl.

[7] = preliminary experiment, 3 doses

SMILES: Cc1cc(C)c(S(=O)(=O)N(Cc2ccc(-c3cccc(S(C)(=O)=O)c3)cc2)Cc2ccc(C(F)(F)F)o2)c(C)c1 [GSK2033, 2,4,6-trimethyl-N-((3′-(methylsulfonyl)-[1,1′-biphenyl]-4-yl)methyl)-N-((5-(trifluoromethyl)furan-2-yl)methyl)benzenesulfonamide]
- T09 induction of Srebp-1c under GSK2033 co-treatment [1]: significantly decreased
- glucose secretion (glucose output) ([2]; LXRα−/− hepatocytes, 100 nM Dex + 10 μM GSK2033, 24 hours): 1.2 fold
- glucose secretion (glucose output) ([2]; WT hepatocytes, 500 nM Dex + 10 μM GSK2033, 8 hours): 1.25 fold
- IC50 [3]: 660 nM
- GR activity [4]: unaffected; also recorded: did not antagonize
- IC50 ([5]; Example 1, T0901317 at EC80 (250 nM), 8 concentrations, read-out: IC50 against LXRα): 79 nM
- IC50 ([5]; Example 7, T0901317 250 nM, 6 concentrations, read-out: IC50 to inhibit LXRα): 22 nM
- basal repression of LXRα [5, 7]: basal repression
- IC50 ([6]; IC50 against LXRβ, Example 1, T0901317 at EC80 (100 nM), 8 concentrations): 37 nM
- IC50 ([6]; IC50 to inhibit LXRβ, Example 7, T0901317 100 nM, 6 concentrations): 6.44 nM
- basal repression of LXRβ [6, 7]: basal repression
